Data from patent US7019034B2, “Compositions and methods for reducing serum glucose and triglyceride levels in diabetic mammals” (Allergan, Inc., priority 2003, dated 2006).

Columns and labels:
RARγ [1] = target: T1, RARγ (Homo sapiens, UniProt P13631); test: chimeric receptor transactivation assay, RARγ; type: cell-based
T1 sequence (P13631 185-419 limits assumed): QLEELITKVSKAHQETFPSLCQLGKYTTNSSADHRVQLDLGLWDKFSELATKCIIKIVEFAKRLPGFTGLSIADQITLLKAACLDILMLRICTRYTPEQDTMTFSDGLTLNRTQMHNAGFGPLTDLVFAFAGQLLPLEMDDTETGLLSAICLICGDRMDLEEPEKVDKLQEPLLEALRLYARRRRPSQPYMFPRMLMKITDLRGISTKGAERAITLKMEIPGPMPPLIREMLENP
Description: (§1) The specification of U.S. Pat. No. 5,455,265 is hereby expressly incorporated by reference.
(§2) Table 1 discloses the activity of certain exemplary compounds of the invention in the above-described receptor transactivation and binding assays. Particularly, the transactivation data pertaining to activation of the RAR receptors were obtained in the chimeric assay, and the transactivation data pertaining to the activation of RXR receptors were obtained in the holoreceptor assay.
(§3) Efficacy in a transactivation assay is expressed as a percentage of the maximum potency attained by the compound compared to a standard which, in this case, is the compound named (2E,4E,1′S,2′S)-3-methyl-5-[2′-methyl-2′-(5,5,8,8-tetramethyl-5,6,7,8-tetrahydro-naphthalen-2-yl)-cyclopropyl]-penta-2,4-dienoic acid.
(§4) In Table 1 NA stands for not active at all as an agonist. ND stands for not determined. The first row of numbers pertaining to each compound is the measured EC50 number. […] The third row of numbers pertaining to each compound is the binding Ki number.

RARα [2] = target: T2, RARα (Homo sapiens, UniProt P10276); test: ligand binding assay, RARα; details: read-out: RAR Bind. Ki α
T2 sequence (P10276 1-462): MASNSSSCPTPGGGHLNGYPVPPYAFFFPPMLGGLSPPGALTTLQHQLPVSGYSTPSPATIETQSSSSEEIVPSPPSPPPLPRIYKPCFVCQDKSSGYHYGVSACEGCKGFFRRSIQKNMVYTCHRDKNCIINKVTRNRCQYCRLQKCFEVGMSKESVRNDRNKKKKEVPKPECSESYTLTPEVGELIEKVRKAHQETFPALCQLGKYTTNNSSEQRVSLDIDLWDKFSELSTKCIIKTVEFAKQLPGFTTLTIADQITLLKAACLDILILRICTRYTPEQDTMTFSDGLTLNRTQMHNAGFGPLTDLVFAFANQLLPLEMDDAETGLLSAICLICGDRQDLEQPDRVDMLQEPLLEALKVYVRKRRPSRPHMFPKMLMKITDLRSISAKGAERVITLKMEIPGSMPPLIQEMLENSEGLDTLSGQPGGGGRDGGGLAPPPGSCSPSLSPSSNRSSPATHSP
Description: (§5) A holoreceptor transactivation assay and a ligand binding assay which measure the antagonist/agonist like activity of the compounds of the invention, or their ability to bind to the several retinoid receptor subtypes, respectively, are described in published PCT Application No. WO WO93/11755 (particularly on pages 30–33 and 37–41) published on Jun. 24, 1993, the specification of which is also incorporated herein by reference. […] The results obtained in this assay are expressed in EC50 numbers, as they are also in the chimeric receptor transactivation assay. The results of the ligand binding assay are expressed in Ki numbers. (See Cheng et al. Biochemical Pharmacology Vol. 22 pp 3099–3108, expressly incorporated herein by reference.)
as §4

RARγ [3] = target: T3, RARγ (Homo sapiens, UniProt P13631); test: ligand binding assay, RARγ; details: read-out: RAR Bind. Ki γ
T3 sequence (P13631 1-454): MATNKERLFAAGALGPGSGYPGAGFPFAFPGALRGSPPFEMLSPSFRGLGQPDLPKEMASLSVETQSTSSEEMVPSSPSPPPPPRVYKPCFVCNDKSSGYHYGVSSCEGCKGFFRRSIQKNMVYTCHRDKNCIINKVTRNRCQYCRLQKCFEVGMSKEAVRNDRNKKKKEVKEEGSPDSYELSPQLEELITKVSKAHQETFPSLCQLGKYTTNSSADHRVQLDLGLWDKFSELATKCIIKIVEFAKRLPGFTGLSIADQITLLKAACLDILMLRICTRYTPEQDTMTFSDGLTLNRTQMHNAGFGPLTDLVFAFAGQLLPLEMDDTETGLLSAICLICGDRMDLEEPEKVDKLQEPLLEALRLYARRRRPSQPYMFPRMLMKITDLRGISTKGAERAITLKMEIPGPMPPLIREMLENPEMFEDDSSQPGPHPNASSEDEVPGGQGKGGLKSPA
Description: as §5, §4

RARα [4] = target: T2, RARα; test: chimeric receptor transactivation assay, RARα; type: cell-based
Description: as §1, §2, §3, §4

RXRγ = target: T4, RXRγ (UniProt P28705); test: holoreceptor transactivation assay, RXRγ; type: cell-based
T4 sequence (P28705 1-463): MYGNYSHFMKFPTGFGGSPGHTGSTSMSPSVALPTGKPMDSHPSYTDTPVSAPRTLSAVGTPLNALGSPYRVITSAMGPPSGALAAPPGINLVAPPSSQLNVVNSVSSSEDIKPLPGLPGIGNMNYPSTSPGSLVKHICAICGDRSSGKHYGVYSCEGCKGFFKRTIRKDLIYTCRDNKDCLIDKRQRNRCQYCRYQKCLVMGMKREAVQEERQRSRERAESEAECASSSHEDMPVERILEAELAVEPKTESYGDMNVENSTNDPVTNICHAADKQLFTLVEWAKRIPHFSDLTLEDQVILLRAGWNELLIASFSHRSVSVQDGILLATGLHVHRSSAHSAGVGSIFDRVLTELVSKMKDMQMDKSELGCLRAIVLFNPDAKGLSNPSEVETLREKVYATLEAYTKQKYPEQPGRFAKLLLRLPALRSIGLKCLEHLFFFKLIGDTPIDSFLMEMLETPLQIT
Description: The results obtained in this assay are expressed in EC50 numbers, as they are also in the chimeric receptor transactivation assay. The results of the ligand binding assay are expressed in Ki numbers.
Particularly, the transactivation data pertaining to activation of the RAR receptors were obtained in the chimeric assay, and the transactivation data pertaining to the activation of RXR receptors were obtained in the holoreceptor assay.
as §4

young db/db mice = test: serum thyroxine (T4) in young db/db mice, 14 days oral dosing; type: in vivo
Protocol: In another study the efficacy of RXR agonists in the prevention of diabetes was tested in young db/db mice. […] Serum samples were analyzed by using commercially available kits from Boehring Manheim for their thyroxine (T4) levels in a Boehringer Manheim Hatachi Clinical Chemistry Analyzer as described in the reference manual of Boehringer Mannheim Corporation, 9115 Hague Road, Indianapolis, Ind., USA, expressly incorporated herein.

Structure (SMILES) | EC50 (RARγ [1]; NA = not active at all as an agonist, read-out: RAR Trans. EC50 γ) | RAR γ efficacy in percentage as compared to the standard compound (RARγ [1]; number in brackets) | Ki (RARα [2]) | Ki (RARγ [3]) | EC50 (RARα [4]; NA = not active at all as an agonist, read-out: RAR Trans. EC50 α) | RAR α efficacy in percentage as compared to the standard compound (RARα [4]; number in brackets) | EC50 (RXRγ; NA = not active at all as an agonist, read-out: RXR Trans. EC50 γ) | RXR γ efficacy in percentage as compared to the standard compound (RXRγ; number in brackets) | Serum thyroxine (young db/db mice; 50 mg/kg orally for 14 days, mean +/- SD (n = 7)) | effect on serum T4 (in words) (young db/db mice; mouse, in vivo)
CCCOc1cc2c(cc1\C(C)=C(F)/C=C/C(C)=C/C(=O)O)C(C)(C)CCC2(C)C [Compound 4] | > 1000 nM | 15% | 590 nM | 720 nM |  |  |  |  |  | 
CCOc1cc2c(cc1\C(CC)=C(F)/C=C/C(C)=C/C(=O)O)C(C)(C)CCC2(C)C [Compound 2, (2E,4E,6E)-7-(3-Ethoxy-5,5,8,8-tetramethyl-5,6,7,8-tetrahydronaphthalen-2-yl)-6-fluoro-3-methylnona-2,4,6-trienoic acid] |  |  | 152 nM | 1510 nM | 37 nM | 15% | 9 nM | 18% | 1.30 ± 0.28 µg/dL | does not affect
